Assay results reported in ChEMBL document CHEMBL1126040 (J Med Chem, 1992).

Assays:
[1] = molecular target: Sodium-dependent dopamine transporter (Rattus norvegicus) (UniProt P23977); experiment: In vitro ability to inhibit the [3H]WIN-35428 binding to cocaine binding site on dopamine transporter in rat striatal membranes irreversibly after two washes.; assay type: cell membranes; parameters: concentration or dose not given beside the values; settings: Striatum; Membrane
[2] = molecular target: Sodium-dependent dopamine transporter (Rattus norvegicus, UniProt P23977); experiment: Inhibition of […] binding to the dopamine transporter in rat striatal membranes.; assay type: cell membranes, Membrane
[3] = molecular target: Sodium-dependent dopamine transporter (Rattus norvegicus) (UniProt P23977); experiment: In vitro ability to inhibit the [3H]WIN-35428 binding to cocaine binding site on dopamine transporter in rat striatal membranes irreversibly after three washes.; assay type: cell membranes; parameters: concentration or dose not given beside the values; settings: Striatum; Membrane
[4] = molecular target: Sodium-dependent dopamine transporter (Rattus norvegicus) (UniProt P23977); experiment: In vitro ability to inhibit the [3H]WIN-35428 binding to cocaine binding site on dopamine transporter in rat striatal membranes irreversibly after no wash.; assay type: cell membranes; parameters: concentration or dose not given beside the values; settings: Striatum; Membrane
[5] = molecular target: Sodium-dependent dopamine transporter (Rattus norvegicus) (UniProt P23977); experiment: In vitro ability to inhibit the [3H]WIN-35428 binding to cocaine binding site on dopamine transporter in rat striatal membranes irreversibly after one wash.; assay type: cell membranes; parameters: concentration or dose not given beside the values; settings: Striatum; Membrane

Chain of Sodium-dependent dopamine transporter (P23977 whole entry): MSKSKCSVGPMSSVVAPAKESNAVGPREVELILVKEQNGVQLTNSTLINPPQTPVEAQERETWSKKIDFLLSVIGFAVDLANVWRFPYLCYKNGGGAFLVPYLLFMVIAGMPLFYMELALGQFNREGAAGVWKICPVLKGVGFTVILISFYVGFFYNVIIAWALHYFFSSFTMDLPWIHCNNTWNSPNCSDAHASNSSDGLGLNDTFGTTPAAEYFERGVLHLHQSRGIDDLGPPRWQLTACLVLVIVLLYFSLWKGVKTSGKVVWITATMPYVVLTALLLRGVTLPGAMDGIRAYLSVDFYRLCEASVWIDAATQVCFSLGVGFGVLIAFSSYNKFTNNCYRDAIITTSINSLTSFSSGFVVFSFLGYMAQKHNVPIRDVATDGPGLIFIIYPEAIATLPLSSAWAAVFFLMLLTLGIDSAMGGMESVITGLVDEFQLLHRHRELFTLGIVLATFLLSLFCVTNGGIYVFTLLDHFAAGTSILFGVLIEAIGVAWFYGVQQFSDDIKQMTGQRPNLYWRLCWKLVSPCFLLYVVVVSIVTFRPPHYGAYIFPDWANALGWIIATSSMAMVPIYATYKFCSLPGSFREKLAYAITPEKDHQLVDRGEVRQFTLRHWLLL
Chain of Sodium-dependent dopamine transporter (Rattus norvegicus) (P23977 whole entry): as above

Compound | Control [1] | IC50 [2] | Control [3] | Control [4] | Control [5]
CN1C2CC[C@@H]1C[C@H](c1ccc(Cl)cc1)[C@@H]2C(=O)OCCc1ccc(N=[N+]=[N-])cc1 | 24% | 6.17 nM | 26% | 21% | 19%
CN1C2CC[C@@H]1C[C@H](OC(=O)c1ccccc1)[C@@H]2C(=O)OCCc1ccc(NC(=O)CBr)cc1 | 33% | 61 nM | 38% | 22% | 34%
CN1C2CC[C@@H]1C[C@H](c1ccc(Cl)cc1)[C@@H]2C(=O)OCCc1ccc(N)cc1 |  | 2.16 nM |  |  | 
CN1C2CC[C@@H]1C[C@H](c1ccc(Cl)cc1)[C@@H]2C(=O)OCCc1ccc([N+](=O)[O-])cc1 |  | 2.71 nM |  |  | 
COC(=O)[C@H]1[C@@H](OC(=O)c2ccccc2)C[C@@H]2CC[C@H]1N2C | 79% |  |  | 43% | 85%
CN1C2CC[C@@H]1C[C@H](OC(=O)c1ccccc1)[C@@H]2C(=O)OCCc1ccc(N=C=S)cc1 |  | 196 nM |  |  | 
CN1C2CC[C@@H]1C[C@H](OC(=O)c1ccccc1)[C@@H]2C(=O)OCCc1ccc(N)cc1 |  | 72 nM |  |  | 
CN1C2CC[C@@H]1C[C@H](OC(=O)c1ccccc1)[C@@H]2C(=O)OCCc1ccc(N=[N+]=[N-])cc1 | 45% | 227 nM | 49% | 23% | 30%
COC(=O)[C@@H]1C2CC[C@H](C[C@@H]1c1ccc(N)c(I)c1)N2C |  | 1.35 nM |  |  | 
CN1C2CC[C@@H]1C[C@H](OC(=O)c1ccccc1)[C@@H]2C(=O)OCCCc1ccccc1 |  | 139 nM |  |  | 
CN1C2CC[C@@H]1C[C@H](OC(=O)c1ccccc1)[C@@H]2C(=O)OCCc1ccccc1 |  | 248 nM |  |  | 
CN1C2CC[C@@H]1C[C@H](c1ccc(Cl)cc1)[C@@H]2C(=O)OCCc1ccc(N=C=S)cc1 | 26% | 5.3 nM | 30% | 24% | 29%
CN1C2CC[C@@H]1C[C@H](c1ccc(Cl)cc1)[C@@H]2C(=O)OCCc1ccc(NC(=O)CBr)cc1 | 26% | 1.73 nM | 34% | 14% | 23%
COC(=O)[C@@H]1C2CC[C@H](C[C@@H]1c1ccc(N=[N+]=[N-])c(I)c1)N2C | 5% | 4.93 nM | 5% | 0% | 2%
CN1C2CC[C@@H]1C[C@H](OC(=O)c1ccccc1)[C@@H]2C(=O)OCCc1ccc([N+](=O)[O-])cc1 |  | 601 nM |  |  | 
CN1C2CC[C@@H]1C[C@H](c1ccc(Cl)cc1)[C@@H]2C(=O)OCCc1ccc(N=[N+]=[N-])c(I)c1 | 22% | 14.5 nM | 16% | 14% | 14%
CN1C2CC[C@@H]1C[C@H](c1ccc(Cl)cc1)[C@@H]2C(=O)OCCc1ccc(N)c(I)c1 |  | 2.51 nM |  |  | 
